Data published in US20180235993A1 (priority 2000, published 2018).
Read-outs that look alike come from different tables or passages of the source.

Columns and labels:
HepG2 cells [1] = test: Mitochondria toxicity assay (L-lactic acid assay); format: cell-based; settings: Conc. 10 μM, 4 day drug exposure
Protocol: HepG2 cells were cultured in 12-well plates as described above and exposed to various concentrations of drugs as taught by Pan-Zhou X-R, Cui L, Zhou X-J, Sommadossi J-P, Darley-Usmer V M. “Differential effects of antiretroviral nucleoside analogs on mitochondrial function in HepG2 cells” Antimicrob Agents Chemother 2000; 44:496-503. Lactic acid levels in the culture medium after 4 day drug exposure was measured using a Boehringer lactic acid assay kit. Lactic acid levels were normalized by cell number as measured by hemocytometer count.

MDBK = test: Cytotoxicity assay (sulforhodamine B, CC50), MDBK; format: cell-based; settings: MDBK cells, 4 days incubation
Protocol: (§1) Cells were seeded at a rate of between 5×10^3 and 5×10^4/well into 96-well plates in growth medium overnight at 37° C. in a humidified CO2 (5%) atmosphere. New growth medium containing serial dilutions of the drugs was then added. After incubation for 4 days, cultures were fixed in 50% TCA and stained with sulforhodamineB. The optical density was read at 550 nm. The cytotoxic concentration was expressed as the concentration required to reduce the cell number by 50% (CC50).

Human Hepatoma = test: Cytotoxicity assay (sulforhodamine B, CC50), Human Hepatoma; format: cell-based; settings: 4 days incubation
Protocol: as §1

HepG2 cells [2] = test: Phosphorylation assay of nucleoside to active triphosphate; format: in vitro ADME; settings: 10 μM [3H] labeled compound
Protocol: To determine the cellular metabolism of the compounds, HepG2 cells were obtained from the American Type Culture Collection (Rockville, Md.), and were grown in 225 cm^2 tissue culture flasks in minimal essential medium supplemented with non-essential amino acids, 1% penicillin-streptomycin. The medium was renewed every three days, and the cells were subcultured once a week. After detachment of the adherent monolayer with a 10 minute exposure to 30 mL of trypsin-EDTA and three consecutive washes with medium, confluent HepG2 cells were seeded at a density of 2.5×10^6 cells per well in a 6-well plate and exposed to 10 μM of [^3H] labeled active compound (500 dpm/pmol) for the specified time periods. The cells were maintained at 37° C. under a 5% CO2 atmosphere. At the selected time points, the cells were washed three times with ice-cold phosphate-buffered saline (PBS). Intracellular active compound and its respective metabolites were extracted by incubating the cell pellet overnight at −20° C. with 60% methanol followed by extraction with an additional 20 μL of cold methanol for one hour in an ice bath. The extracts were then combined, dried under gentle filtered air flow and stored at −20° C. until HPLC analysis.

BVDV (strain NADL) = test: Cell Protection Assay (CPA); format: cell-based, Bovine Viral Diarrhea virus
Protocol: The assay was performed essentially as described by Baginski, S. G.; Pevear, D. C.; Seipel, M.; Sun, S. C. C.; Benetatos, C. A.; Chunduru, S. K.; Rice, C. M. and M. S. Collett “Mechanism of action of a pestivirus antiviral compound” PNAS USA 2000, 97(14), 7981-7986. MDBK cells (ATCC) were seeded onto 96-well culture plates (4,000 cells per well) 24 hours before use. After infection with BVDV (strain NADL, ATCC) at a multiplicity of infection (MOI) of 0.02 plaque forming units (PFU) per cell, serial dilutions of test compounds were added to both infected and uninfected cells in a final concentration of 0.5% DMSO in growth medium. Each dilution was tested in quadruplicate. Cell densities and virus inocula were adjusted to ensure continuous cell growth throughout the experiment and to achieve more than 90% virus-induced cell destruction in the untreated controls after four days post-infection. After four days, plates were fixed with 50% TCA and stained with sulforhodamine B. The optical density of the wells was read in a microplate reader at 550 nm. The 50% effective concentration (EC50) values were defined as the compound concentration that achieved 50% reduction of cytopathic effect of the virus. FIGS. 4 and 5 provide a graphical illustration of the methodology used to arrive at the 50% effective concentration (EC50) values for β-D-2′-CH3-riboG and ribavirin. FIG. 6 compares the results of the CPA for β-D-2′-CH3-riboG, β-D-2′-CH3-riboC, riboU, β-D-2′-CH3-riboA and ribavirin

[3] = system: Bovine Viral Diarrhea virus (BVDV); test: microbe, parasite or virus in culture; format: cell-based; settings: read-out: BVDV EC50
YFV-17D = test: microbe, parasite or virus in culture; format: cell-based, Yellow fever virus vaccine strain 17D; settings: Table 12; reduce the plaque number by 50%; YFV-BHK; read-out: YFV EC50
[4] = system: Human bone marrow cells (BFU-E); test: Human bone marrow toxicity, BFU-E clonogenic assay; format: cell-based; settings: human bone marrow colony formation, 14 to 18 days
Source text: (§2) Human bone marrow cells were collected from normal healthy volunteers and the mononuclear population was separated by Ficoll-Hypaque gradient centrifugation as described previously by Sommadossi J-P, Carlisle R. “Toxicity of 3′-azido-3′-deoxythymidine and 9-(1,3-dihydroxy-2-propoxymethyl)guanine for normal human hematopoietic progenitor cells in vitro” Antimicrobial Agents and Chemotherapy 1987; 31:452-454; and Sommadossi J-P, Schinazi R F, Chu C K, Xie M-Y. “Comparison of cytotoxicity of the (−)- and (+)-enantiomer of 2′,3′-dideoxy-3′-thiacytidine in normal human bone marrow progenitor cells” Biochemical Pharmacology 1992; 44:1921-1925. The culture assays for CFU-GM and BFU-E were performed using a bilayer soft agar or methylcellulose method. Drugs were diluted in tissue culture medium and filtered. After 14 to 18 days at 37° C. in a humidified atmosphere of 5% CO2 in air, colonies of greater than 50 cells were counted using an inverted microscope. The results in Table 4 are presented as the percent inhibition of colony formation in the presence of drug compared to solvent control cultures.

BVDV (NADL strain) = test: Yield Reduction Assay; format: cell-based, Bovine Viral Diarrhea virus
Protocol: The assay was performed as described by Baginski, S. G.; Pevear, D. C.; Seipel, M.; Sun, S. C. C.; Benetatos, C. A.; Chunduru, S. K.; Rice, C. M. and M. S. Collett “Mechanism of action of a pestivirus antiviral compound” PNAS USA 2000, 97(14), 7981-7986, with minor modifications. Briefly, MDBK cells were seeded onto 24-well plates (2×10^5 cells per well) 24 hours before infection with BVDV (NADL strain) at a multiplicity of infection (MOI) of 0.1 PFU per cell. Serial dilutions of test compounds were added to cells in a final concentration of 0.5% DMSO in growth medium. Each dilution was tested in triplicate. After three days, cell cultures (cell monolayers and supernatants) were lysed by three freeze-thaw cycles, and virus yield was quantified by plaque assay. Briefly, MDBK cells were seeded onto 6-well plates (5×10^5 cells per well) 24 h before use. Cells were inoculated with 0.2 mL of test lysates for 1 hour, washed and overlaid with 0.5% agarose in growth medium. After 3 days, cell monolayers were fixed with 3.5% formaldehyde and stained with 1% crystal violet (w/v in 50% ethanol) to visualize plaques. FIG. 9 is a graphical illustration of the results from the Yield Reduction Assay. FIG. 8 is an image of BVDV yield reduction in the presence of increasing concentrations of β-D-2′-CH3-riboC.

BVDV = test: Plaque Reduction Assay; format: cell-based, Bovine Viral Diarrhea virus
Protocol: For each compound the effective concentration was determined in duplicate 24-well plates by plaque reduction assays. Cell monolayers were infected with 100 PFU/well of virus. Then, serial dilutions of test compounds in MEM supplemented with 2% inactivated serum and 0.75% of methyl cellulose were added to the monolayers. Cultures were further incubated at 37° C. for 3 days, then fixed with 50% ethanol and 0.8% Crystal Violet, washed and air-dried. FIG. 7 is a graphical illustration of the results from the Plaque Reduction Assay. FIG. 8 is an image of BVDV plaque formation in the presence of increasing concentrations of β-D-2′-CH3-riboU.

[5] = system: Human bone marrow cells (CFU-GM); test: Human bone marrow toxicity, CFU-GM clonogenic assay; format: cell-based; settings: human bone marrow colony formation, 14 to 18 days; read-out: IC50 CFU-GM
Source text: as §2

[6] = HepG2 cells, read-out: CC50 HepG2
[7] = Huh7 cells, read-out: CC50 Huh7
[8] = read-out: Cell Protection (EC50)

## O=c1[nH]c(=O)n([C@@H]2O[C@H](CO)[C@@H](O)[C@@H]2F)cc1I [FIAU, reference compound]
HepG2 cells [1]
  lactate: 3.73 mg/10^6 cell
  lactate % of Control: 170.4%

## CC1(O)[C@@H](O)[C@@H](CO)O[C@H]1n1cnc2c(N)ncnc21 (stereo partly drawn) [β-D-2'-CH3-riboA]
MDBK
  CC50: 20 µM
Human Hepatoma; [6]
  CC50: 50 to 60 µM
Human Hepatoma; [7]
  CC50: 40 µM

## C[C@@]1(O)[C@H](O)[C@@H](CO)O[C@H]1n1ccc(N)nc1=O [β-D-2'-CH3-riboC]
MDBK
  CC50: 100 µM
Human Hepatoma; [6]
  CC50: 150 µM
Human Hepatoma; [7]
  CC50: > 250 µM

## CC1(O)[C@@H](O)[C@@H](CO)O[C@H]1n1cnc2c(=O)[nH]c(N)nc21 (stereo partly drawn) [β-D-2'-CH3-riboG]
MDBK
  CC50: 100 µM
Human Hepatoma; [6]
  CC50: > 250 µM
Human Hepatoma; [7]
  CC50: > 250 µM

## C[C@@]1(O)[C@H](O)[C@@H](CO)O[C@H]1n1ccc(=O)[nH]c1=O [β-D-2'-CH3-riboU]
MDBK
  CC50: > 250 µM
Human Hepatoma; [6]
  CC50: > 250 µM
Human Hepatoma; [7]
  CC50: > 250 µM

## C[C@@]1(O)[C@H](O)[C@@H](COP(=O)(O)OP(=O)(O)OP(=O)(O)O)O[C@H]1n1cnc2c(N)ncnc21 [β-D-2′-CH3-riboA-TP]
HepG2 cells [2]; 2 h
  intracellular triphosphate level: 33.1 pmol/million cells
HepG2 cells [2]; 4 h
  intracellular triphosphate level: 67.7 pmol/million cells
HepG2 cells [2]; 8 h
  intracellular triphosphate level: 147 pmol/million cells
HepG2 cells [2]; 24 h
  intracellular triphosphate level: 427 pmol/million cells
HepG2 cells [2]; 30 h
  intracellular triphosphate level: 456 pmol/million cells
HepG2 cells [2]; 48 h
  intracellular triphosphate level: 288 pmol/million cells

## C[C@@]1(O)[C@H](O)[C@@H](COP(=O)(O)OP(=O)(O)OP(=O)(O)O)O[C@H]1n1ccc(N)nc1=O [β-D-2′-CH3-riboC-TP]
HepG2 cells [2]; 2 h
  intracellular triphosphate level: 2.24 pmol/million cells
HepG2 cells [2]; 4 h
  intracellular triphosphate level: 3.99 pmol/million cells
HepG2 cells [2]; 8 h
  intracellular triphosphate level: 9.76 pmol/million cells
HepG2 cells [2]; 24 h
  intracellular triphosphate level: 34.9 pmol/million cells
HepG2 cells [2]; 30 h
  intracellular triphosphate level: 36.2 pmol/million cells
HepG2 cells [2]; 48 h
  intracellular triphosphate level: 56.4 pmol/million cells

## C[C@@]1(O)[C@H](O)[C@@H](COP(=O)(O)OP(=O)(O)OP(=O)(O)O)O[C@H]1n1cnc2c(=O)[nH]c(N)nc21 [β-D-2′-CH3-riboG-TP]
HepG2 cells [2]; 8 h
  intracellular triphosphate level: 2.85 pmol/million cells
HepG2 cells [2]; 24 h
  intracellular triphosphate level: 0.91 pmol/million cells
HepG2 cells [2]; 30 h
  intracellular triphosphate level: 3.22 pmol/million cells
HepG2 cells [2]; 48 h
  intracellular triphosphate level: 6.26 pmol/million cells

## C[C@@]1(O)[C@H](O)[C@@H](CO)O[C@H]1n1cnc2c(=O)[nH]cnc21 [β-D-2′-CH3-riboI]
BVDV (strain NADL); [8]
  EC50: 45 µM

## Cc1cn([C@@H]2O[C@H](CO)[C@@H](O)[C@@]2(C)O)c(=O)[nH]c1=O [β-D-2′-CH3-riboT]
BVDV (strain NADL); [8]
  EC50: > 250 µM

## C[C@@]1(O)[C@H](O)[C@@H](COP(=O)(O)OP(=O)(O)OP(=O)(O)O)O[C@H]1n1ccc(=O)[nH]c1=O [β-D-2′-CH3-riboU-TP]
HepG2 cells [2]; 2 h
  intracellular triphosphate level: 0.40 pmol/million cells
HepG2 cells [2]; 4 h
  intracellular triphosphate level: 1.21 pmol/million cells
HepG2 cells [2]; 8 h
  intracellular triphosphate level: 1.57 pmol/million cells
HepG2 cells [2]; 24 h
  intracellular triphosphate level: 6.39 pmol/million cells
HepG2 cells [2]; 30 h
  intracellular triphosphate level: 7.18 pmol/million cells
HepG2 cells [2]; 48 h
  intracellular triphosphate level: 9.42 pmol/million cells

## C[C@@]1(O)[C@H](O)[C@@H](CO)O[C@H]1n1ccc(=O)[nH]c1=O [β-D-2′-CH3-riboU]
MDBK cells
  CC50: > 250 µM
BVDV (strain NADL); [8]
  EC50: 20 µM
BVDV (strain NADL); read-out: EC50
  EC50: 20 µM
[3]
  EC50: 20 µM
YFV-17D
  EC50: 33 µM
[4]
  IC50: > 100 µM
BVDV (NADL strain)
  Conc. for 6-log Reduction: 120 μM
  EC90: 24 µM
  Yield Reduction 6 log10 reduction (μM): 120 μM
BVDV; read-out: EC90
  EC90: < 81 µM
BVDV; read-out: Plaque Reduction (EC90)
  EC90: < 81 µM
Various cell systems
  CC50: > 100 µM
Various cell systems; read-out: YFV CC50, Table 12, reduce the viability of cells by 50%, YFV-BHK system
  CC50: > 100 µM
[5]
  IC50: > 100 µM
